Measurements taken from patent US20230332103A1, “Methods and Compositions for Generating Human Forebrain Neural Progenitor Cells and for Maturation Thereof to Parvalbumin+ Interneurons” (Trailhead Biosystems Inc., priority 2021, published 2023).
“And” between values parts separate entries of the source, which are not always exact repeats. Equal values may be shown once. “Also recorded” adds a separate entry of the source.

Legend:
[1] = tested on: stage 2 neural stem cells (cells treated with stage 1 and stage 2 media); test: HD-DoE experiment for stage 3 recipe, optimized for ASCL1; format: cell-based, human; conditions: for factor contribution on expression of ASCL1: positive, model optimized for maximum expression of ASCL1 at 1700, FIG. 9
Procedure: To further guide the cells to medial ganglionic eminence progenitor fate, an additional HD-DoE experiment was performed for 3 days on cells that were treated with stage 1 and stage 2 media for total of 6 days prior to start of the experiment. This experiment included 13 effectors, LDN193189, A8301, GNF5837, AZD3147, GSI-XX, Takinib, PD0325901, PD173074, BLU9931, IGF-1, MHY1485, Purmorphamine and Prostratin. In this model, we focused on maximum expression of genes expressed in neuronal progenitor cells in medial ganglionic eminence (MGE) region including ASCL1, LHX6 and DLX1 (Silberberg et al. (2016) Neuron 92:59-74). When the model was optimized for maximum expression of ASCL1 at 1700, A8301, GSI-XX, Purmorphamine and Takinib, which is an inhibitor of TAK1 pathway, had the highest factor contributions, 18.1, 14.1, 12.7 and 10.1 respectively. […]

[2] = tested on: stage 2 neural stem cells; test: factor criticality analysis (dynamic profile analysis) of stage 3 recipe; format: cell-based, human; design: unit not given here; conditions: other five factors present; for expression level of DLX1 when the effector is removed: 220 with all six factors; for expression level of LHX6 when the effector is removed: 240 with all six factors; for expression level of ASCL1 when the effector is removed: 1650 with all six factors
Procedure: To assess the impact of the elimination of each validated factor, dynamic profile analysis was used and compared the expression level of genes of interest in absence of each finalized factor while others are present. […] In the stage 3 recipe, each of the six finalized factors were removed while the other five factors remained present and the expression levels of ASCL1, DLX1 and LHX6 were assessed compared to the presence of all six factors. […] As expected, in the absence of IGF-1, the value of DLX1 increases to 410, however, ASCL1 and LHX6 decreased to 1390 and 220, respectively.

[3] = tested on: human pluripotent stem cells; test: additional HD-DoE experiment for stage 1 (forebrain differentiation from pluripotency), optimized for FEZF2; format: cell-based; conditions: dynamic profile, FIG. 6
Procedure: To identify the recipe for stage 1 of differentiation, 96 different combinations of effectors generated using Design-of-Experiments compression through D-optimality were robotically prepared. The effector combinations were prepared in a basal media and were subsequently added to the cells, which were then allowed to differentiate. Three days later RNA extraction was performed, and gene expression was obtained using quantitative PCR analysis. The data were normalized and modeled using partial least squares regression analysis to the effector design, resulting in the generation of gene-specific models, which after model tuning for maximal Q2 predictive power, provided explanation of the effectors ability to control the expression of individual genes, combinatorially, and individually. Solutions within the tested space could then be explored to address desirability.
To further enhance the conditions for forebrain differentiation from pluripotency, an additional HD-DoE experiment was performed. Additional gene regulatory models were obtained that were used for preparation of the differentiation protocol. The factors in this experiment included LDN193189, PD173074, BLU9931, Purmorphamine, SC79, MK2206, ZM336372, PD0325901, CHIR99021, XAV939, UCLA-GP130, Tofacitinib and GO6983. […] Dynamic profile analysis was also used to assess the interaction between the effectors.

[4] = tested on: forebrain-committed neural stem cells (stage 1 neural stem cells); test: HD-DoE 12-factor experiment for stage 2 recipe, optimized for NKX2-1; format: cell-based, human; conditions: for impact on expression of NKX2-1: model maximized for NKX2-1 / dynamic profile, FIG. 7 and 8
Procedure: To further guide the differentiation of forebrain-committed neural stem cells to ventral forebrain neural stem cells at stage 2, a HD-DoE experiment was performed for 3 days after termination of stage 1 treatment. At this time, we focused on maximum expression of NKX2-1 that is expressed in ventral forebrain region and minimum expression of PAX6 that is expressed in dorsal forebrain region. This 12-factor experiment included LDN193189, BMP7, PD0325901, MK2206, A8301, XAV939, CHIR99021, Purmorphamine, SANT-1, AGN193109, TTNPB and GSI-XX.

[5] = tested on: MGE progenitor cells; test: HD-DoE 12-factor experiment for stage 4 recipe, optimized for MEF2C; format: cell-based, human
Description: These effectors are small molecules or proteins. They are commonly used during stepwise differentiation of stem cells to specific fates. The choice of the effectors was based on current literature on neural induction in forebrain region of developing brain and differentiation of stem cells to neural progenitors.
To evaluate the effectors, experiments with at least 8 factors were designed that can assess the response of cells to 48 or more different combinations of effectors in a range of concentrations. To analyze the models, we focused on expression of genes involved in development and patterning of the forebrain interneurons maturation including LHX6 (Yuan et al. (2018) Elife, 7:e37382), DLX5 (Wang et al. (2010) J. Neuroscience 30:5334-5345), ASCL1 (Shi et al. (2016) J. Biol. Chem. 291:13560-13570). At later stages we focused on interneuron maturation genes including Parvalbumin and absence of somatostatin (Horn and Nicoll (2018) Proc. Natl. Acad. Sci. 115:589-594). The impacts of each effector on gene expression level are defined by a parameter called factor contribution that is calculated for each effector during the modeling.
To identify the recipe of stage 4 of differentiation, 48 different combinations of effectors generated using Design-of-Experiments compression through D-optimality were robotically prepared. The effector combinations were prepared in a basal media and were subsequently added to the cells, which were then allowed to differentiate. Three days later RNA extraction was performed, and gene expression was obtained using quantitative PCR analysis. The data was normalized and modeled using partial least squares regression analysis to the effector design, resulting in the generation of gene-specific models, which after model tuning for maximal predictive power, provided explanation of the effectors ability to control the expression of individual genes, combinatorically, and individually. Solutions within the tested space could then be explored to address desirability. […] Valproic Acid can inhibit histone deaceylases and increase γ-aminobutyric acid (GABA). […] GDNF is the […] Glial cell line-derived neurotrophic factor and can activate the GDNF pathway.
To find the set of factors that have the potential to optimize MEF2C in this experiment, a new assessment was done through dynamic profile analysis with focus on maximal expression of MEF2C (FIG. 20).

[6] = tested on: human pluripotent stem cells; test: HD-DoE 12-factor experiment for stage 1 recipe, gene expression by quantitative PCR after 3 days; format: cell-based
Description: This example utilizes a method of High-Dimensional Design of Experiments (HD-DoE), as previously described in Bukys et al. (2020) […] 23:101346. The method employs computerized design geometries to simultaneously test multiple process inputs and offers mathematical modeling of a deep effector/response space. The method allows for finding combinatorial signaling inputs that control a complex process, such as during cell differentiation. It allows testing of multiple plausible critical process parameters, as such parameters impact output responses, such as gene expression. Because gene expression provides hallmark features of the phenotype of, for example, a human cell, the method can be applied to identify, and understand, which signaling pathways control cell fate. In the current example, the HD-DOE method was applied with the intent to find conditions for induction of […] neural progenitor-expressed genes, directly from the pluripotent stem cell state. To develop the recipe for each stage, the impact of agonists and antagonists of multiple signaling pathways (herein called effectors) on the expression of two sets of 53 pre-selected genes, after a 3-day treatment, has been tested and modeled. These effectors are small molecules or proteins that are commonly used during stepwise differentiation of stem cells to specific fates. Choice of the effectors were based on current literature on neural induction in forebrain region of developing brain and differentiation of stem cells to neural progenitors. To test the effectors, experiments with at least 8 factors were designed that can assess the response of cells to 48 or more different combinations of effectors in a range of concentrations. To analyze the models, we focused on expression of genes involved in development and patterning of the anterior neuroectoderm and forebrain including OTX2 (Hoch et al. (2015) Cell Reports 12:482-494), SIX3 (Lagutin et al. (2003) Genes & Development 17:368-379) and FEZF2 (Zhang et al. (2014) Development 141:4794-[…]). At later stages we focused on dorsoventral patterning of telencephalon and gene expressed in ventral forebrain including NKX2-1 and absence of PAX6 which is a dorsal forebrain marker (Stoykova et al. (2000) J. Neurosci. 20:8042-8050). The impact of each effector on gene expression level is defined by a parameter called factor contribution that is calculated for each effector during the modeling. To identify the recipe for stage 1 of differentiation, 96 different combinations of effectors generated using Design-of-Experiments compression through D-optimality were robotically prepared. The effector combinations were prepared in a basal media and were subsequently added to the cells, which were then allowed to differentiate. Three days later RNA extraction was performed, and gene expression was obtained using quantitative PCR analysis. […] Solutions within the tested space could then be explored to address desirability. Optimizing for maximal expression of SIX3 at 3300 and FEZF2 1355 expression values led to robust solutions. This model was derived from testing 12 effectors including AGN193109, LDN193189, CHIR99021, XAV939, IGF2, Purmorphamine, 4-oxo-RA, TTNPB, SR11237, FGF8, PD0325901 and […]. […] The model was also optimized for maximum expression of FEZF2 separately at 3576 expression value to find any additional factors that can boost expression of forebrain genes. […] To find the set of factors that have the potential to optimize all 3 genes in this experiment, a new assessment was done through dynamic profile analysis with focus on maximal expression of OTX2, FEZF2 and SIX3.

[7] = dynamic profile analysis, FIG. 10
[8] = dynamic profile analysis, FIG. 4

Cc1cccc(-c2nn(C(=S)Nc3ccccc3)cc2-c2ccnc3ccccc23)n1 [A8301]
impact on expression of ASCL1 [1, 7]: positive trends; also recorded: Positive impact | impact on expression of DLX1 [1, 7]: did not have a significant negative impact | impact on expression of LHX6 [1, 7]: positive trends; also recorded: Positive impact | factor contribution on expression of ASCL1 [1]: 18.1 and 18 | expression level of DLX1 when the effector is removed [2]: did not change significantly | expression level of LHX6 when the effector is removed [2]: did not change significantly | expression level of ASCL1 when the effector is removed [2]: 1000

Cc1ccc(NC(=O)Nc2cc(C(F)(F)F)ccc2F)cc1Nc1ccc2c(c1)NC(=O)/C2=C\c1ccc[nH]1 [GNF5837]
factor contribution on expression of ASCL1 [1]: 9.4 | expression level of DLX1 when the effector is removed [2]: did not have a significant impact | expression level of LHX6 when the effector is removed [2]: 160 | expression level of ASCL1 when the effector is removed [2]: 1300

COc1ccc2c(c1)c(C1=C(c3c[nH]c4ccccc34)C(=O)NC1=O)cn2CCCN(C)C [GO6983]
impact on expression of FEZF2 [3]: positive impact

NC1(c2ccc(-c3nc4ccn5c(=O)[nH]nc5c4cc3-c3ccccc3)cc2)CCC1 [MK2206]
impact on expression of FEZF2 [3]: positive impact | impact on expression of NKX2-1 [4]: increase its expression level

Cc1nn(-c2ccccc2)c(C)c1/C=N/N1CCN(Cc2ccccc2)CC1 [SANT-1]
impact on expression of NKX2-1 [4]: negative impact | factor contribution on expression of NKX2-1 ([4]; negative role, model optimized for maximum expression of NKX2-1, FIG. 7): 26.3

NC(=O)c1ccc(-c2nc(-c3ccc4c(c3)OCO4)c(-c3ccccn3)[nH]2)cc1 [SB431542]
impact on expression of MEF2C ([5]; dynamic profile analysis, FIG. 20): negative effect | factor contribution on expression of MEF2C ([5]; significant negative effect, model optimized for maximal expression of MEF2C): 7.9

C/C(=C\c1ccc(C(=O)O)cc1)c1ccc2c(c1)C(C)(C)CCC2(C)C [TTNPB]
factor contribution, important input for high expression of SIX3 ([6]; FIG. 2 legend, model optimized for maximum expression of SIX3 as printed): 23.7 | impact on expression of OTX2 [6, 8]: negative impact | impact on expression of SIX3 [6, 8]: negative impact | factor contribution on expression of FEZF2 ([6]; positive impact, model optimized for maximum expression of FEZF2): 24 | factor contribution on expression of SIX3 ([6]; significant negative effect, model optimized for maximal expression of SIX3): 21 | factor contribution on expression of OTX2 ([6]; significant negative impact, model of maximum expression of OTX2): 29 and 28.8 | impact on expression of NKX2-1 [4]: negative impact

CCCn1/c(=N/C(=O)c2cccc(C(N)=O)c2)[nH]c2ccccc21 [Takinib]
factor contribution on expression of ASCL1 [1]: 10.1 | expression level of DLX1 when the effector is removed [2]: 180 | expression level of LHX6 when the effector is removed [2]: 170
